Experimental data as given in ChEMBL document CHEMBL3627610 (Eur J Med Chem, 2015).
pEC50, pKi: −log10 of the molar value. Calls of active or inactive are those of the source. The rule behind the calls is not given here.

Columns and labels:
[1] = species on record: Xenopus laevis; experiment: Agonist activity at melatonin receptor in Xenopus laevis melanophores assessed as effect on pigment aggregation at 10^-5 M after 60 mins by microtiter plate reader assay
[2] = species on record: Xenopus laevis; experiment: Antagonist activity at melatonin receptor in Xenopus laevis melanophores assessed as effect on pigment aggregation at 10^-4 M after 60 mins by microtiter plate reader assay
[3] = species on record: Xenopus laevis; experiment: Agonist activity at melatonin receptor in Xenopus laevis melanophores assessed as effect on pigment aggregation at 10^-12 to 10^-5 M after 60 mins by microtiter plate reader assay
[4] = Agonist activity at melatonin receptor in Xenopus laevis melanophores assessed as effect on pigment aggregation after 60 mins by microtiter plate reader assay
[5] = molecular target: T1, Melatonin receptor type 1B (Homo sapiens, UniProt P49286); experiment: Displacement of 2-[125I]iodomelatonin from human recombinant MT2 expressed in CHO cell membranes incubated for 120 mins by liquid scintillation spectrometry
T1 sequence (P49286 whole entry): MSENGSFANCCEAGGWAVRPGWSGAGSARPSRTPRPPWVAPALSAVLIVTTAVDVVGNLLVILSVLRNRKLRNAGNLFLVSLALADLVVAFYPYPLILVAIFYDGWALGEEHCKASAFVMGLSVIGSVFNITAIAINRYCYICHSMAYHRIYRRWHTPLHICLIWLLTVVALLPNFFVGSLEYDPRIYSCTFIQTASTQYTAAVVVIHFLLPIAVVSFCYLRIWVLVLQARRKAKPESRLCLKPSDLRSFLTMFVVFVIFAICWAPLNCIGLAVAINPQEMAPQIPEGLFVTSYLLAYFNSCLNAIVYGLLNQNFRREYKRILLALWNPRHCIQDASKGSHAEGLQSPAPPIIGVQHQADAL

[6] = molecular target: Melatonin receptor type 1A (Homo sapiens, UniProt P48039); experiment: Displacement of 2-[125I]iodomelatonin from human recombinant MT1 expressed in CHO cell membranes incubated for 60 mins by liquid scintillation spectrometry
Chain of Melatonin receptor type 1A (P48039 whole entry): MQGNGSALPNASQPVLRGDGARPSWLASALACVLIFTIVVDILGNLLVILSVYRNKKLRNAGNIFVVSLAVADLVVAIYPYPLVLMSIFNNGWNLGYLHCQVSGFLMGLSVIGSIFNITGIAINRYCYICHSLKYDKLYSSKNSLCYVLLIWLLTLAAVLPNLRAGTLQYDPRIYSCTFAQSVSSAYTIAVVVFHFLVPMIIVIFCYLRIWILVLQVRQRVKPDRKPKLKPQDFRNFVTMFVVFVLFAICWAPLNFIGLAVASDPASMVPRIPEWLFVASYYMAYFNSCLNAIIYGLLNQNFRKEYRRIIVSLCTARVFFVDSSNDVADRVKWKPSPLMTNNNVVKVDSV

SMILES | Activity [1] | inhibition [2] | Emax [3] | pEC50 [4] | pKi [5] | pKi [6]
COc1ccc2c(CCCNC(C)=O)cc(=O)oc2c1 | inactive | Active | – | – | – | –
COc1ccc2[nH]cc(CCNC(C)=O)c2c1 [MELATONIN] | – | – | 100% | 10.13 | – | –
COc1ccc2oc(=O)cc(CCNC(C)=O)c2c1 | – | Active | 89% | 6.93 | 8.47 | 7.89
